The source of these data is patent US12054497B2, “Substituted heterocyclic fused cyclic compound, preparation method therefor and pharmaceutical use thereof” (GENFLEET THERAPEUTICS (SHANGHAI) INC., priority 2019, dated 2024).

pIC50: −log10 of the molar value. Read-outs that look alike come from different tables or passages of the source.

For orientation: pIC50 means −log10 of the IC50, conventionally taken in molar units.

Common to all, as to type: cell-based, human
The subject of experiment [1] is A549 cells with Kras G12S mutation. Nature of the experiment: Cell proliferation inhibition experiment, 3D spheroid, CellTiter-Glo (Test Example 1). To be noted: 5 days. The protocol:
(§1) NCI-H358 was a human NSCLC cell line with Kras G12C mutation, which was cultured in a RPMI-1640 medium with 10% fetal bovine serum (FBS). A549 was a human lung adenocarcinoma cell line with Kras G12S mutation, which was cultured in an F-12K medium with 10% FBS. Cells in logarithmic growth phase were detached with trypsin and EDTA, collected and counted, and H358 was regulated to 1.8E4 cells/ml by using an RPMI-1640 medium with 2% FBS, while A549 was regulated to 8.9E3 cells/ml with an F-12K medium containing 2% FBS. 800 (45 μl) H358 cells and 400 (45 μl) A549 cells were seeded to 384-well spheroid plates, respectively, and cultured overnight to establish 3D cell models. 1000× stock solutions of compounds at a concentration gradient of 3.16 were prepared by using DMSO, and diluted 100 times by the medium with 2% FBS into 10× stock solutions of compounds. On the day after cell seeding, 5 μl of 10× stock solution of a compound was added to each well of cell culture plate, with a final concentration being 1× and a DMSO content of 0.1%. DMSO was used as the control, and the medium with 2% FBS was used as blank control group. After 5 days of cell culture with the compound, 25 μl of CellTiter-Glo working solution was added to each well, and mixed uniformly at 400 rpm and incubation for 30 minutes. After standing at room temperature for 30 minutes, 40 μl of mixed solution was transferred to a 384-well plate with white clear bottom. A value of luminescence was then read, and a cell proliferation inhibition rate (IR) (%)=(RLU control-RLU compound)/(RLU control−RLU blank)×100%. The value of IC50 was calculated by fitting a gradiently diluted concentration of the compound and the corresponding cell proliferation inhibition rate using a Prism 6 four-parameter method.
Background: ATP-based viability assays read luminescence as a measure of living cells.

Experiment [2] concerns NCI-H358 cells with Kras G12C mutation. Described as above. To be noted: 5 days. How it is done:
as §1

The subject of experiment [3] is phosphorylated ERK in MIA PaCa2 cells with Kras G12C mutation. Nature of the experiment: p-ERK HTRF assay for cells (Test Example 2). The settings on record: MIA PaCa2 cells, 2 hours with compound, read-out: p-ERK IC50. The protocol: MIA PaCa2 was a human pancreatic carcinoma cell line with Kras G12C mutation, which was cultured in a DMEM with 10% FBS and 2.5% Horse serum. Cells in logarithmic growth phase were detached with trypsin and EDTA, collected and counted, and 2.5E4 cells were seeded to a 96-well cell culture plate and cultured overnight. 1000× stock solutions of compounds at a concentration gradient of 3.16 were prepared by using DMSO, and diluted 200 times by the medium into 5× stock solutions of compounds. On the day after cell seeding, 5× stock solution of a compound was added to each well of cell culture plate, with a final concentration being 1× and a DMSO content of 0.1%. DMSO was used as the control. The residual culture was removed after culturing for 2 hours with the compound. To each well, 50 ul of cell lysis buffer was added and mixed uniformly and incubation for 30 minutes. Subsequently, 16 ul of mixed solution was transferred to a 96-well plate with white unclear bottom, and 16 ul of cell lysis buffer was added to the blank control group. After the completion of transfer, 4 ul of p-ERK HTRF antibody mixture was added to each well, and a value of fluorescence intensity was read after incubation for 4 hours. The inhibition rate (IR) of the compound was calculated by the following equation: IR (%)=(RLU control-RLU compound)/(RLU control−RLU blank)×100%. The value of IC50 was calculated by fitting a gradiently diluted concentration of the compound and the corresponding cell proliferation inhibition rate using a Prism 8 four-parameter method.

For `C=CC(=O)N1CCN2c3c(c(=O)n(-c4c(C)ccnc4C(C)C)c4nc(-c5c(C)ccc6[nH]ncc56)c(F)cc34)OC[C@H]2C1` [Compound Z29, (4aR)-3-acryloyl-11-fluoro-8-(2-isopropyl-4-methylpyridin-3-yl)-10-(5-methyl-1H-indazol-4-yl)-1,2,3,4,4a,5-hexahydropyrazino[1′,2′:4,5][1,4]oxazino[2,3-c][1,8]naphthyridin-7(8H)-one], the pIC50 in experiment [1] (Homo sapiens, A549, 120 h) was 4.66; in experiment [2] (Homo sapiens, NCI-H358, 120 h), 6.78.

Take `C=CC(=O)N1CC2C(=O)N(C)c3c(c4cc(F)c(-c5c(O)cccc5F)nc4n(-c4c(C(F)(F)F)ccnc4C(C)C)c3=O)N2C[C@H]1C` (single isomer, unassigned) [Compound Z49-2]: the pIC50 in experiment [1] was under 4.52; in experiment [2], 7.36.

As for `C=CC(=O)N1CCN2c3c(c(=O)n(-c4c(C5CC5)ncnc4C4CC4)c4nc(-c5c(O)cccc5F)c(Cl)cc34)N(C)C(=O)[C@H]2C1` [Compound Z72], in experiment [3] (Homo sapiens, MIA PaCa-2, 2 h), the pIC50 is 6.97.

Take `C=CC(=O)N1CCN2c3c(c(=O)n(-c4c(C)ccnc4C(C)C)c4nc(-c5c(O)cccc5F)c(F)cc34)N(CC)C(=O)[C@H]2C1` (single isomer, unassigned) [Compound Z30-1]: the pIC50 in experiment [1] was under 4.52; in experiment [2] it was 6.09.

On to `C=CC(=O)N1C[C@@H]2C(=O)Nc3c(c4cc(F)c(-c5c(O)cccc5F)nc4n(-c4c(C)ccnc4C(C)C)c3=O)N2C[C@H]1C` (single isomer, unassigned) [Compound Z35-2], for which the pIC50 in experiment [3] is 7.31; in experiment [1], under 4.52; in experiment [2], 8.22.

Take `C=CC(=O)N1CCN2c3c(c(=O)n(-c4c(C)ccnc4C(C)C)c4nc(-c5c(O)cccc5F)c(F)cc34)OC[C@H]2C1` (single isomer, unassigned) [Compound Z1-2]: the pIC50 is 4.78 in experiment [1] (Homo sapiens, A549, 120 h) and 6.70 in experiment [2].

With `C=CC(=O)N1C[C@@H]2C(=O)Nc3c(c4cc(F)c(-c5c(O)cccc5F)nc4n(-c4c(C)ccnc4C(C)C)c3=O)N2C[C@H]1C` (single isomer, unassigned) [Compound Z35-1], the pIC50 in experiment [3] is 6.60; in experiment [1], under 4.52; in experiment [2], 7.43.

As for `C=CC(=O)N1CCN2c3c(cnc4c3CCN(c3c(C)ccc5[nH]ncc35)C4)OC[C@H]2C1` [Compound Z2, (R)-1-(3-(5-methyl-1H-indazol-4-yl)-1,2,3,4,8a,9,11,12-octahydropyrazino[1′,2′:4,5][1,4]oxazino[2,3-c][1,7]naphthyridin-10(8H)-yl)propyl-2-en-1-one], the pIC50 in experiment [1] was under 5.00; in experiment [2], 6.11.
